Experimental data from ChEMBL document CHEMBL3137667, “[Drug-induced liver injury; fourteenth updated edition of the bibliographic database of liver injuries and related drugs]” (Gastroenterol Clin Biol, 2004).

Columns and labels:
[1] = human
[2] = human; remark: listed apart in the source
[3] = human; remark: listed apart in the source
[4] = human; remark: listed apart in the source
[5] = human; remark: listed apart in the source
[6] = human, serum
[7] = human; remark: listed apart in the source
[8] = Highest frequency of acute liver toxicity observed during clinical trials, expressed as a percentage. [column '% AIGUE' in source]; details: human
[9] = human; remark: listed apart in the source
[10] = Highest frequency of moderate liver toxicity observed during clinical trials, expressed as a percentage. [column '% BIOL' in source]; details: human
[11] = Times to onset, minimal and maximal, observed in the indexed observations. [column 'DELAI' in source]; details: human
[12] = Presence of at least one case with successful reintroduction. [column 'REINT' in source]; details: human
[13] = human; remark: listed apart in the source
[14] = human; remark: listed apart in the source
[15] = human, serum; remark: listed apart in the source
[16] = human, serum, 4383 h
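Wherever Hepatotoxicity (association with vascular disease) is given: count of indexed literature references reporting vascular liver injury in humans, e.g. peliosis hepatitis, hepatic veno-occlusive disease or Budd-Chiari syndrome.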
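Wherever Hepatotoxicity (benign tumour) is given: value is a count of indexed literature references citing a benign tumour confirmed by histopathology.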
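Wherever Hepatotoxicity (choleostasis) is given: human cholestatic liver injury, shown by histopathology or by peak ALT or AST elevation over alkaline phosphatase ratio below 2, value counts indexed literature reports.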
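Wherever Hepatotoxicity (chronic liver disease) is given: chronic liver injury confirmed by histopathology or persistently raised serum aminotransferase activity beyond 6 months, value given as the count of indexed literature references.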
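Wherever Hepatotoxicity (cirrhosis) is given: value is a count of indexed literature references reporting cirrhosis confirmed by histopathology.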
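Wherever Hepatotoxicity (cytolytic) is given: human cytolytic liver injury, shown by histopathology or by a ratio above 5 of peak ALT or AST elevation to alkaline phosphatase elevation, value counts indexed references.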
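Wherever Hepatotoxicity (granulomatous hepatitis) is given: value is a count of indexed literature references reporting granulomatous liver disease confirmed by histopathology.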
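Wherever Hepatotoxicity (malignant tumour) is given: malignant tumour confirmed by histopathology, value gives the count of indexed literature references reporting it.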
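Wherever Hepatotoxicity (severe hepatitis) is given: human clinical data: severe hepatitis, meaning potentially life-threatening liver failure or clinically observed cases, the value counts how many indexed literature references report it.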
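Wherever Hepatotoxicity (steatosis) is given: steatosis confirmed by histopathology, value is the count of indexed references.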

| SMILES | Hepatotoxicity (association with vascular disease) [1] | Hepatotoxicity (cytolytic) [2] | Hepatotoxicity (severe hepatitis) [3] | Hepatotoxicity (malignant tumour) [4] | Hepatotoxicity (cirrhosis) [5] | Hepatotoxicity (acute) [6] | Hepatotoxicity (benign tumour) [7] | Hepatotoxicity (acute) [8] [%] | Hepatotoxicity (choleostasis) [9] | Hepatotoxicity (moderate) [10] [%] | Hepatotoxicity (time to onset) [11] | Hepatotoxicity (successful reintroduction) [12] | Hepatotoxicity (steatosis) [13] | Hepatotoxicity (granulomatous hepatitis) [14] | Hepatotoxicity (moderate) [15] | Hepatotoxicity (chronic liver disease) [16] |
| --- | --- | --- | --- | --- | --- | --- | --- | --- | --- | --- | --- | --- | --- | --- | --- | --- |
| Cc1c(OCC(F)(F)F)ccnc1C[S+]([O-])c1nc2ccccc2[nH]1 (centres undefined) [LANSOPRAZOLE] | 0 | 3 | 1 | 0 | 0 | 4 | 0 | 0 | 1 | 10.5 | 13 days - 5 weeks | yes | 0 | 0 | 7 | 0 |
| COc1c2occc2c(OC)c2c(=O)cc(C)oc12 [KHELLIN] | 0 | 1 | 0 | 0 | 0 | 1 | 0 | 0 | 0 | 0 | 5 weeks | yes | 0 | 0 | 1 | 0 |
| CC(=O)S[C@@H]1CC2=CC(=O)CC[C@]2(C)[C@H]2CC[C@@]3(C)[C@@H](CC[C@@]34CCC(=O)O4)[C@H]12 [SPIRONOLACTONE] | 0 | 3 | 0 | 0 | 0 | 3 | 0 | 0 | 3 | 0 | 6 weeks - 2 months | yes | 0 | 0 | 0 | 0 |
| O=C(O)COC(=O)Cc1ccccc1Nc1c(Cl)cccc1Cl [ACECLOFENAC] | 0 | 2 | 0 | 0 | 0 | 3 | 0 | 0 | 0 | 3.3 | 1 week - 3 weeks | yes | 0 | 0 | 5 | 0 |
